Measured values from patent US10413520B2, “Oral pharmacological composition including 5-{4-(amino sulfonyl)phenyl}-2,2-dimethyl-4-(3-fluorophenyl)-3(2H)-furanone having crystalline structure with excellent stability” (CRYSTALGENOMICS, INC., priority 2014, dated 2019).
Like-named read-outs stand apart in the source and are kept apart here. Blank lines part the entries; values can stand above or below the molecule they belong to.

Experiments:
[1] = Particle size analysis by laser diffraction; format: physicochemical; conditions: dry module, 2 bar
Description: The particle sizes of the crystalline form of Comparative Examples 1 and 2 and Example 39 were analyzed using a laser diffraction-based particle size analyzer (Mastersizer 2000®, Malvern). After each sample was fed into a dry module (Scirocco 2000®, Malvern) at a pressure of 2 bar, the 50% volume particle diameter (d(0.5)) and 90% volume particle diameter (d(0.9)) of the particles were measured.

[2] = Solubility test in solvents, up to 200 vol (Table 1); format: physicochemical; conditions: organic solvent or mixture, thermodynamic from solid, about 5 mg compound, solvent named in the row (c1)
Excerpt: Then, the solvents were evaporated at room temperature for drying and XRPD patterns of the obtained dried materials were confirmed.

[3] = Humidity stability of crystalline form A in capsules; format: physicochemical; conditions: PTP, 25 ± 2° C., 90 ± 5% RH
Description: (§1) The crystalline form A was filled in a hard capsule (2 mg per capsule) and stored under the severe humidity conditions shown in Table 10. Thereafter, the appearance of the crystalline form A, the retention time of the major peak, the amounts (%) of related substances, and the compound content were analyzed.

[4] = Dissolution rates of crystalline form with different particle sizes; format: physicochemical; conditions: 2 mg per hard capsule, 900 ml pH 1.2 and pH 6.8 solutions, 100 rpm, 37±0.5° C., 3 hr
Description: In this example, the dissolution rates of the crystalline form with different particle sizes were examined. The particles of Comparative Examples 1 and 2 and Example 39 were filled in different hard capsules (2 mg per capsule) and were then eluted in 900 ml of a pH 1.2 solution and 900 ml of a pH 6.8 solution at a revolution number of 100 rpm and a temperature of 37±0.5° C. for 3 hr. The eluted particles were analyzed under the same HPLC conditions as described in Test Example 1.

[5] = Light stability of crystalline form A in capsules; format: physicochemical; conditions: for Amounts of related substances (each) / Amounts of related substances (total) / Appearance / Content / Peak retention time confirmation: PTP, light stress (white and UV florescent lamp)
Description: as §1, with “light stress” for “severe humidity”, “11.” for “10.”

[6] = Temperature stability of crystalline form A in capsules; format: physicochemical; conditions: PTP, 60 ± 5% RH
Description: The retention time of the major peak, the amounts of related substances, and the compound content were analyzed by HPLC under the following conditions.
<HPLC Conditions for Analysis of Related Substances>
Column: Hypurity C18, 250×4.6 mm, […] or its equivalent column
Detector: UV absorption spectrometer (measured at 241 nm)
(§2) Column temperature: 30° C.
Mobile phase: A—acetonitrile, B—0.1% v/v trifluoroacetic acid (TFA) in water
<HPLC Conditions for Analysis of the Compound Content>
(§3) Detector: UV absorption spectrometer (measured at 325 nm)
(§4) Mobile phase: A—acetonitrile, B—water, A:B=60:40, v/v %
Diluent: water:acetonitrile=50:50, v/v %

[7] = Room temperature storage of anhydrous form; format: physicochemical; conditions: stored at room temperature for a long period
Description: Then, about 18 g of the compound was dissolved in 200 mL of acetone. The completely dissolved solution was vacuum dried at 40° C. using a rotary evaporator (Buchi Rota Vapour R200). The compound thus obtained was a sponge-like solid. When the compound was stored at room temperature for a long period, the structure of the crystalline form A was gradually formed, and related substances were created due to hygroscopic property.

[8] = Related substance creation under stress conditions (HPLC); format: physicochemical; conditions: stress conditions 60±2° C. and 85±5% (RH), sealed glass vial; for Total related substance: after 4 week storage
Description: Each raw material was sealed in a glass vial and sampled at different elapsed time. The samples were evaluated by HPLC analysis. […] Based on the above results, the crystalline forms A and G were selected and used for the study for manufacturing an oral pharmacological composition.

[9] = Dissolution rates of crystalline forms in hard capsules; format: physicochemical; conditions: 900 ml pH 1.2 solution, 50 and 100 rpm, 37±0.5° C., 2 hr
Description: In this example, the dissolution rates of the crystalline forms of the compound of Formula 1 were examined. Specifically, each of the crystalline form A of Preparative Example 5 and the crystalline form G of Preparative Example 6 was filled in hard capsules and was then eluted in 900 ml of a pH 1.2 solution at different revolution numbers of 50 and 100 rpm and a temperature of 37±0.5° C. for 2 hr. The eluted particles were analyzed under the following HPLC conditions:
Column: Hypurity C18, 250×4.6 mm, 5 μm or its equivalent column
as §3, §2, §4

[10] = Storage stability of crystalline forms (appearance, XRD, related substances); format: physicochemical; conditions: 25° C./97% RH and 40° C./75% RH, 7 days; for State of crystalline form (XRD): hard capsules; for Appearance and crystalline structures / Creation of related substances: uncapped glass vial
Description: Additionally, the crystalline forms of the compound of Formula 1 were evaluated for storage stability. The crystalline form A of Preparative […] conditions (25° C./97% RH) and accelerated storage conditions (40° C./75% RH) for 7 days. X-ray diffraction analysis was performed in accordance with the same method as described in Preparative Examples 5 and 6.

[11] = Pharmacokinetic properties of crystalline forms after oral administration; format: in vivo; conditions: single oral dose, male SD rats; for AUC / Cmax / Tmax: about 5 mg in 10 mL 0.5% methylcellulose, 10 mL/Kg
Description: The pharmacokinetic properties of the different crystalline forms of the compound of Formula 1 were analyzed in vivo. About 5 mg of each of the crystalline form A of Preparative Example 5 and the crystalline form G of Preparative Example 6 was suspended in 10 mL of a 0.5% methylcellulose solution to produce a formulation for oral use. Then, 6 week old male SD rats (Orient Bio. Inc., Korea) were divided into two groups. About 3 mL (10 mL/Kg) of the oral formulation was once administered orally to each rat and blood samples were drawn from the rat at predetermined intervals of 0.167, 0.5, 1.0, 2.0, 4.0, 6.0, 8.0, and 24.0 hr. The blood samples were used to analyze the pharmacokinetic parameters of the crystalline form.
The pharmacokinetic parameters of the crystalline forms were analyzed using Waters Quattro premier XE 2795 Alliance HT (Waters) under the following conditions: flow rate=0.25 ml/min, column temperature=40° C., injection volume=7 μL, and mobile phase=A: 1 mM ammonium acetate & 0.1% acetic acid (35%), B: ACN (65%). Linearity was established with 8 different standard concentrations.
The oral formulations including the compound of Preparative Example 5 and the compound of Preparative Example 6, respectively, were administered to the different rats.

[12] = Solubility test in 28 solvents at r.t. and 50° C. (Table 2)
Description: When dissolution was incomplete during the experiment, the solution was maturated by repeatedly heating to 50° C. and then cooling to room temperature 8 times for 24 hr in an incubation chamber. After maturation, the solvent was dried at room temperature.
During the experiment, the completely dissolved solution was stored under a cold condition (4° C.) for 24 hr to allow crystal formation, recovered and dried at room temperature. Then XRPD analysis was performed.

Structure (SMILES): CC1(C)OC(c2ccc(S(N)(=O)=O)cc2)=C(c2cccc(F)c2)C1=O [Comparative Example 1]
Particle size d(0.1) [1]: 40.55 μm
Particle size d(0.5), 50% volume particle diameter [1]: 136.49 μm
Particle size d(0.9), 90% volume particle diameter [1]: 527.04 μm

Structure (SMILES): CC1(C)OC(c2ccc(S(N)(=O)=O)cc2)=C(c2cccc(F)c2)C1=O [Comparative Example 2]
Particle size d(0.1) [1]: 5.15 μm
Particle size d(0.5), 50% volume particle diameter [1]: 32.17 μm
Particle size d(0.9), 90% volume particle diameter [1]: 83.54 μm

Structure (SMILES): CC1(C)OC(c2ccc(S(N)(=O)=O)cc2)=C(c2cccc(F)c2)C1=O [Example 4]
solubility ([2]; read-out: Solubility at 100 vol (500 uL)): > 10000 µg/mL

Structure (SMILES): CC1(C)OC(c2ccc(S(N)(=O)=O)cc2)=C(c2cccc(F)c2)C1=O [Example 5]
solubility ([2]; read-out: Solubility at 200 vol (1000 uL)): < 5000 µg/mL

The next lines start with results.

Amounts of related substances (each) ([3]; 1 week): 0.1%
Amounts of related substances (total) ([3]; 1 week): 0.1%,
Appearance ([3]; 1 week): Unchanged
Content ([3]; 1 week): 103.1%
Peak retention time confirmation ([3]; 1 week): The same
Amounts of related substances (each) ([3]; 2 weeks): 0.1%, 0.1%
Amounts of related substances (total) ([3]; 2 weeks): 0.1%, 0.1%
Appearance ([3]; 2 weeks): Unchanged
Content ([3]; 2 weeks): 103.1%
Peak retention time confirmation ([3]; 2 weeks): The same
Amounts of related substances (each) ([3]; 4 weeks): 0.1%,
Amounts of related substances (total) ([3]; 4 weeks): 0.1%
Appearance ([3]; 4 weeks): Unchanged
Content ([3]; 4 weeks): 101.2%
Peak retention time confirmation ([3]; 4 weeks): The same
Amounts of related substances (each) ([5]; 1 week): 1.7%
Amounts of related substances (total) ([5]; 1 week): 3.0%
Appearance ([5]; 1 week): Unchanged
Content ([5]; 1 week): 103.4%
Peak retention time confirmation ([5]; 1 week): The same
Amounts of related substances (each) ([5]; 2 weeks): 2.1%
Amounts of related substances (total) ([5]; 2 weeks): 3.7%
Appearance ([5]; 2 weeks): Unchanged
Content ([5]; 2 weeks): 103.1%
Peak retention time confirmation ([5]; 2 weeks): The same
Amounts of related substances (each) ([5]; 4 weeks): 2.3%
Amounts of related substances (total) ([5]; 4 weeks): 4.1%
Appearance ([5]; 4 weeks): Unchanged
Content ([5]; 4 weeks): 99.1%
Peak retention time confirmation ([5]; 4 weeks): The same
Amounts of related substances (each) ([6]; 60 ± 2° C., 24 hr): 0.0%,
Amounts of related substances (total) ([6]; 60 ± 2° C., 24 hr): 0.0%
Appearance ([6]; 60 ± 2° C., 24 hr): Unchanged
Content ([6]; 60 ± 2° C., 24 hr): 103.0%
Peak retention time confirmation ([6]; 60 ± 2° C., 24 hr): The same
Amounts of related substances (each) ([6]; 80 ± 2° C., 24 hr): 0.0%,
Amounts of related substances (total) ([6]; 80 ± 2° C., 24 hr): 0.0%
Appearance ([6]; 80 ± 2° C., 24 hr): Unchanged
Content ([6]; 80 ± 2° C., 24 hr): 101.5%
Peak retention time confirmation ([6]; 80 ± 2° C., 24 hr): The same
Amounts of related substances (each) ([6]; 90 ± 2° C., 24 hr): 0.0%,
Amounts of related substances (total) ([6]; 90 ± 2° C., 24 hr): 0.0%
Appearance ([6]; 90 ± 2° C., 24 hr): Unchanged
Content ([6]; 90 ± 2° C., 24 hr): 101.8%
Peak retention time confirmation ([6]; 90 ± 2° C., 24 hr): The same
Amounts of related substances (each) ([6]; 90 ± 2° C., 72 hr): 0.1%,
Amounts of related substances (total) ([6]; 90 ± 2° C., 72 hr): 0.1%
Appearance ([6]; 90 ± 2° C., 72 hr): Unchanged
Content ([6]; 90 ± 2° C., 72 hr): 101.1%
Peak retention time confirmation ([6]; 90 ± 2° C., 72 hr): The same
Particle size d(0.1) [1]: 1.75 μm
Particle size d(0.5), 50% volume particle diameter [1]: 5.98 μm
Particle size d(0.9), 90% volume particle diameter [1]: 15.23 μm
Structure (SMILES): CC1(C)OC(c2ccc(S(N)(=O)=O)cc2)=C(c2cccc(F)c2)C1=O [Example 39]
Dissolution rate [4]: higher dissolution rates than the particles of Comparative Examples 1 and 2

Physicochemical stability [7]: physicochemically unstable
Structure (SMILES): CC1(C)OC(c2ccc(S(N)(=O)=O)cc2)=C(c2cccc(F)c2)C1=O [Preparation Example 2]

Total related substance [8]: about 0.1%
State of crystalline form (XRD) [10]: maintained stable
Appearance and crystalline structures [10]: remained unchanged
Creation of related substances [10]: rarely observed
Time until related substances exceeded the criteria ([5]; light stress storage conditions): ≤ 7 days
AUC ([11]; male, SD, rat, blood, po, 5 mg, read-out: AUC): 2320 ng·h/mL
Cmax ([11]; male, SD, rat, blood, po, 5 mg, read-out: Cmax): 751 ng/mL
Tmax ([11]; male, SD, rat, blood, po, 5 mg, read-out: Tmax): 30 min
Structure (SMILES): CC1(C)OC(c2ccc(S(N)(=O)=O)cc2)=C(c2cccc(F)c2)C1=O [Preparative Example 5]
Dissolution rate [9]: higher dissolution rates than the crystalline form G
In vivo dissolution rates (blood levels over time) [11]: higher in vivo dissolution rates than the crystalline form G of Preparative Example 6

Total related substance [8]: about 0.1%
State of crystalline form (XRD) [10]: maintained stable
Appearance and crystalline structures [10]: remained unchanged
Creation of related substances [10]: rarely observed
AUC [11]: 2416.835 ng·h/mL
Cmax [11]: 513.614 ng/mL
Tmax [11]: 60 min
Structure (SMILES): CC1(C)OC(c2ccc(S(N)(=O)=O)cc2)=C(c2cccc(F)c2)C1=O [Preparative Example 6]

Dissolution in solvent volume up to 100 times, heated up to 50° C. ([12]; IPA, Toluene, TBME, Diethyl ether, Heptane, water): not dissolved
Dissolution in solvent volume 10 times the raw material ([12]; acetone, 2-butanone, THF, DMSO, Methylpyrrolidine, Dioxane, acetonitrile aqueous solution, NMP, 1-methoxy-IPA): dissolved
Dissolution in solvent volume 20 times to 40 times the raw material ([12]; ethyl acetate, acetonitrile, MIBK, DCM, Nitromethane): dissolved
Structure (SMILES): CC1(C)OC(c2ccc(S(N)(=O)=O)cc2)=C(c2cccc(F)c2)C1=O [compound of Formula 1]

Level of total related substance over time [8]: rapidly increased
Structure (SMILES): CC1(C)OC(c2ccc(S(N)(=O)=O)cc2)=C(c2cccc(F)c2)C1=O [crystalline form B]
